In PubChem BioAssay (NCI):
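Values below derive from 48-hour exposures of cells grown in 96-well plates, with endpoints linearly interpolated between the two concentrations bracketing the appropriate inhibition level. TGI marks complete inhibition of growth.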

How the values were obtained:
Assay in all cases: NCI anticancer screen, dose series, 48 h
[1] = system: 786-0 renal
[2] = system: A498 renal
[3] = system: A549 NSCLC
[4] = system: ACHN renal
[5] = system: BT-549 breast
[6] = system: CAKI-1 renal
[7] = system: CCRF-CEM leukemia
[8] = system: COLO 205 colon
[9] = system: EKVX NSCLC
[10] = system: HCC-2998 colon
[11] = system: HCT-116 colon
[12] = system: HCT-15 colon
[13] = system: HL-60(TB) leukemia
[14] = system: HOP-62 NSCLC
[15] = system: HOP-92 NSCLC
[16] = system: HS 578T breast
[17] = system: HT29 colon
[18] = system: IGROV1 ovarian
[19] = system: K-562 leukemia
[20] = system: KM12 colon
[21] = system: LOX IMVI melanoma
[22] = system: M14 melanoma
[23] = system: MALME-3M melanoma
[24] = system: MCF7 breast
[25] = system: MDA-MB-231 breast
[26] = system: MDA-MB-435
[27] = system: MDA-N
[28] = system: NCI-H226 lung
[29] = system: NCI-H23 lung
[30] = system: NCI-H460 lung
[31] = system: NCI-H522 lung
[32] = system: NCI/ADR-RES ovarian
[33] = system: OVCAR-3 ovarian
[34] = system: OVCAR-4 ovarian
[35] = system: OVCAR-5 ovarian
[36] = system: OVCAR-8 ovarian
[37] = system: PC-3 prostate
[38] = system: RPMI-8226 leukemia
[39] = system: RXF 393 renal
[40] = system: SF-268 CNS
[41] = system: SF-295 CNS
[42] = system: SF-539 CNS
[43] = system: SK-MEL-2 melanoma
[44] = system: SK-MEL-28 melanoma
[45] = system: SK-MEL-5 melanoma
[46] = system: SK-OV-3 ovarian
[47] = system: SN12C renal
[48] = system: SNB-19 CNS
[49] = system: SNB-75 CNS
[50] = system: SR leukemia
[51] = system: SW-620 colon
[52] = system: T-47D breast
[53] = system: TK-10 renal
[54] = system: U251 CNS
[55] = system: UACC-257 melanoma
[56] = system: UACC-62 melanoma
[57] = system: UO-31 renal
[58] = system: DU-145 prostate
[59] = system: MOLT-4 leukemia

Measured: TGI

Nc1ccc(Cc2ccc(N)c(C(=O)O)c2)cc1C(=O)O
> 100 µM: [1] | [2] | [3] | [4] | [5] | [6] | [7] | [8] | [9] | [10] | [11] | [12] | [13] | [14] | [15] | [16] | [17] | [18] | [19] | [20] | [21] | [22] | [23] | [24] | [25] | [26] | [27] | [28] | [29] | [30] | [31] | [32] | [33] | [34] | [35] | [36] | [37] | [38] | [39] | [40] | [41] | [42] | [43] | [44] | [45] | [46] | [47] | [48] | [49] | [50] | [51] | [52] | [53] | [54] | [55] | [56] | [57]

CC(CCCCNC(=O)OC(C)(C)C)NC(=O)NC(C)CCCCNC(=O)OC(C)(C)C (configuration not stated)
> 100 µM: [1] | [2] | [3] | [4] | [5] | [6] | [7] | [8] | [58] | [9] | [11] | [12] | [13] | [14] | [15] | [16] | [17] | [18] | [19] | [20] | [21] | [22] | [23] | [24] | [25] | [26] | [27] | [59] | [28] | [29] | [30] | [31] | [32] | [33] | [34] | [35] | [36] | [37] | [39] | [40] | [41] | [44] | [45] | [46] | [47] | [48] | [49] | [50] | [51] | [52] | [53] | [54] | [55] | [56] | [57]
